# ChEMBL document CHEMBL3046120, “Synthesis and root growth-inhibitory activity of 2- and 3-(haloacetylamino)-3-(2-furyl)propanoic acids” (2003)
# Test system: Brassica rapa subsp. oleifera
# Assay: Herbicidal activity against Brassica rapa subsp. oleifera seedling assessed as root growth inhibition at 1 x10 ' -4 M measured after 7 days
# Assay type: functional
# Details: 168 h, read-out: GI
row,Structure (SMILES),inhibition of growth at 100 µM
1,O=C(CCl)NC(Cc1ccco1)C(=O)O (racemic),51%
2,O=C(CF)NC(Cc1ccco1)C(=O)O (racemic),90%
3,CC(=O)NC(Cc1ccco1)C(=O)O (racemic),19%
4,NC(Cc1ccco1)C(=O)O (racemic),7%
5,O=C(O)CC(NC(=O)CCl)c1ccco1 (racemic),55%
6,O=C(O)CC(NC(=O)CF)c1ccco1 (racemic),43%
7,CC(=O)NC(CC(=O)O)c1ccco1 (racemic),22%
8,NC(CC(=O)O)c1ccco1 (racemic),16%
9,"O=C(O)COc1ccc(Cl)cc1Cl [2,4-DICHLOROPHENOXYACETIC ACID]",100%
